From patent publication US20130196927A1, “Smac Mimetic Therapy” (priority 2012, published 2013)

Molecular target: T1, GFP-tagged cIAP-2 (Homo sapiens, UniProt Q13489)
T1 construct: expressed in transfected cells
Test: GFP-tagged cIAP-2 degradation assay (loss of GFP signal)
Assay type: cell-based
Settings: GFP-cIAP expressing melanoma cell line A375, treatment for two hours; read-out: IC50 for GFP-tagged cIAP-2 degradation
Description: To evaluate the Smac-mimetic activity in cancer cell lines, we have developed intra-cellular green fluorescence protein (GFP)-tagged cIAP-1 and GFP-tagged cIAP-2 assays. […].

T1 sequence (Q13489 whole entry): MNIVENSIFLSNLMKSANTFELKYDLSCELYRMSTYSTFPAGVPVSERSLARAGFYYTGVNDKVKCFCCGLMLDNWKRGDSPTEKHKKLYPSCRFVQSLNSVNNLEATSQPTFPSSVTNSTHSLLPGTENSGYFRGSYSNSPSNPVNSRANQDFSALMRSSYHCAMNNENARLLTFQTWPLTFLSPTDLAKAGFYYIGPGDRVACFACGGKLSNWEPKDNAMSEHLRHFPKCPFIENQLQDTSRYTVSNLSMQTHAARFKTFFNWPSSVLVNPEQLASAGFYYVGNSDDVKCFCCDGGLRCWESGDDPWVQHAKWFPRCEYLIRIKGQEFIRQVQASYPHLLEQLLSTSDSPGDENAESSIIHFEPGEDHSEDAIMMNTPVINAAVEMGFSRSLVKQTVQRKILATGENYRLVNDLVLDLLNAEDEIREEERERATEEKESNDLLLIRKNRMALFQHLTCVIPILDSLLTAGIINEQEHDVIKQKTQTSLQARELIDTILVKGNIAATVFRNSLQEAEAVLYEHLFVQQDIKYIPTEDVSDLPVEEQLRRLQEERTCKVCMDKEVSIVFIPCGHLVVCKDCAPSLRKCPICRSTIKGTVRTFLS

For `CC[C@H](NC(=O)[C@H](C)NC)C(=O)N1C[C@@H](O)C[C@H]1Cc1c(-c2[nH]c3cc(F)ccc3c2C[C@@H]2C[C@H](O)CN2C(=O)[C@H](CC)NC(=O)[C@H](C)NC)[nH]c2cc(F)ccc12` [Compound 15, birinapant], the DC50 was 150 nM.
